A value given as a limit tells only on which side of the number the result lay.

Data set [1] is described as follows: Microsomal (metabolic) stability. It is filed as in vitro ADME. To be noted: human liver microsomes 1.0 mg/ml; for half-life at 1 µM / microsomal CLint at 1 µM / remaining at 80 min, 1 µM: pH 7.4; for remaining at 80 min, 1 µM: 80-min incubation. The method, then:
A metabolic stability experiment was conducted to calculate the rate of disappearance of polyene macrolides following in vitro incubation with human microsomes. Working solutions of polyene macrolides were prepared from a 10 mM stock solution in dimethyl sulfoxide (DMSO) diluted to a final concentration of 1 µM in 0.1 M potassium phosphate buffer (pH 7.4). Each incubation mixture included 1 mg/mL human microsomal protein (BD Gentest^TM, Franklin Lakes, NJ, USA) and 1 mM NADPH. The reactions were terminated at 0, 15, 45, and 80 min. The reaction mixtures were vigorously vortexed and then analyzed using the API2000 LC-MS/MS) system (Applied Biosystems, USA) using an Xterra MS C18 (3.5-µm, 2.1 × 50 mm, Waters).

Data set [2] has as its system cholesterol-containing membranes. The data set can be described thus: Preliminary SPR experiments. The data set is classed as binding. The note with it: unpublished data.
The next data set relates to C. albicans. The data set can be described thus: In vitro antifungal activity against four different C. albicans strains (comparison). The data set is classed as cell-based, Candida albicans. The protocol:
(§1) For the minimum inhibitory concentration (MIC) assay, strains for testing were grown on YPD agar for 24 hours, and subcultured to YPD broth medium. Whole strains were incubated for 18 hours at 35 °C by shaking incubator. Grown organisms were diluted with fresh RPMI 1640 medium to appropriate concentration, 5 × 10^4 CFU/ml. Cultures were inoculated to 96-well plates containing antifungal medium. All compounds were dissolved using Dimethyl Sulfoxide (DMSO) and diluted broth media. Fungal diluted solution and antifungal medium were mixed at 1:1 ratio so total 200 ul mixed medium was made. Whole experiment plates were incubated for 24 hours at 37 °C. […] The MICs were calculated in duplicate using the Clinical and Laboratory Standards Institute M27-A3 microbroth methodology. Hemolysis experiments and the 3-(4,5-dimethylthiazol-2-yl)-5-(3-carboxymethoxyphenyl)-2-(4-sulfophenyl)-2H-tetrazolium (MTS) cell proliferation colorimetric assay were performed following known procedures[12],[27],[29].

In the next data set the test system is Hep3B cells. Nature of the data set: In vitro hepatotoxicity (MTS cell proliferation assay). The data set is classed as cell-based, human. The protocol: as §1
A further data set concerns HepG2 cells. Described as above. It is filed as cell-based, human. The method, then:
as §1

As for `C[C@@H]1[C@H](O)[C@@H](C)/C=C/C=C/C=C/C=C/C=C/C=C/C=C/[C@H](O[C@@H]2O[C@H](C)[C@@H](O)[C@H](N)[C@@H]2O)C[C@@H]2O[C@](O)(C[C@@H](O)C[C@@H](O)[C@H](O)CC[C@@H](O)C[C@@H](O)CC(=O)O[C@H]1C)C[C@H](O)[C@H]2C(=O)O` [Amphotericin B, amphotericin B], in data set [1], the Clearance class entry is on record as “Low”; the half-life at 1 µM is greater than 80 min; the microsomal CLint at 1 µM is less than 8600 µL/min/mg; the fraction remaining at 80 min, 1 µM came to 101%. In addition, the “affinity compared with NPP B1” value in data set [2] is recorded as “higher affinity”.
As to `CC(=O)NC1C(OC2C(C)OC(OC3C=CC=CC=CC=CC=CC=CC=CC(C)C(O)C(C)C(C)OC(=O)CC(O)CC(O)CC(O)CCC(O)C(O)CC4(O)CC(O)C(C(=O)O)C(C3)O4)C(O)C2N)OC(CO)C(O)C1O` (stereo not shown) [NPP B1, Nystatin-like Pseudonocardia polyene B1], the “antifungal activity, fold lower than amphotericin B” value in the data set on C. albicans worked out at 2 fold. In addition, in data set [1], the Clearance class entry was “Moderate”, the k stood at 0.019, the half-life at 1 µM was found to be 36.5 min and the microsomal CLint at 1 µM was 19000 µL/min/mg. Further, in data set [1], the amount remaining at 80 min, 1 µM worked out at 28.2%. In addition, the “in vitro hepatotoxicity compared with AmB” value with Hep3B cells is “not improved”. For the same molecule, the “in vitro hepatotoxicity compared with AmB” value in the data set with HepG2 cells is reported as “not improved”.

The record behind these values is PMC6134108, “Nystatin-like Pseudonocardia polyene B1, a novel disaccharide-containing antifungal heptaene antibiotic” (Scientific Reports, 2018).
